Reference: paper PMC4721142, “Randomized controlled studies on the efficacy of antiarthritic agents in inhibiting cartilage degeneration and pain associated with progression of osteoarthritis in the rat” (Arthritis Research & Therapy, 2016)
Read-outs that look alike come from different tables or passages of the source.

Legend:
[1] = Comparison of in vitro screens: overlapping effective and nontoxic range; conditions: for Overlapping effective and nontoxic range: inhibits with minimal or no toxicity to synovium or cartilage, overlapping range if effective in more than one assay;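 for all read-outs here: compares non-toxic ranges in synovial cells and chondrocytes with effective ranges against NFkB, MMP-13 and osteoclasts, giving their overlap as the predicted efficacy range in uM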
[2] = test system: RAW 264.7 cells; assay: RANKL-mediated osteoclastogenesis / matrix resorption (Osteologic) assay; type: cell-based, murine; conditions: for minimal effective concentration: Mus musculus, RAW264.7, 168 h, read-out: Lowest inhibitory concentration, matrix resorption
Description: RAW 264.7 cells (American Type Culture Collection [ATCC], Manassas, VA, USA), a murine monocytic cell line that differentiates in the presence of RANKL, was used for measurements of osteoclastogenesis and osteoclast activity. Cells were amplified on nonadherent culture substratum in high-glucose Dulbecco’s modified Eagle’s medium (DMEM) containing 10 % fetal bovine serum (FBS) and penicillin-streptomycin in a 37 °C, 5 % CO2, humidified incubator and were passaged by manual dissociation. […] Plates were subsequently rinsed, bleached, dried, and analyzed for matrix degradation using a Nikon COOLSCOPE (Nikon Instruments, Melville, NY, USA). Matrix resorption was quantified using EclipseNet (Nikon Instruments)/Visiopharm (Visiopharm, Hørsholm, Denmark) software (see Additional file 1).
In Vitro Osteoclastogenesis
Osteoclastogenic activity was measured using BD osteologic plates and quantitation of the degree of bone matrix digestion on the plate surface. Images from the BD Osteologic assay used to […]
left pane depicts an example of a control well after removal of cells from matrix. Pseudocoloring of matrix (blue) and pits (green) is shown in the far right pane. A transparent overlay of the two images is shown in the center.
Figure 5 - Measurement of drug effects on osteoclastogenesis and osteoclast activity.
Comparisons were made between RANKL treated control wells and wells treated with both RANKL and […]
Agents were initially tested either during differentiation or post differentiation in the bone assay […]
(e.g., Figure 2, Sulfazalazine). […]
indicated (*/**: p < 0.05/0.01, unpaired t-test versus RANKL control). […]

[3] = test system: NF-κB; assay: TNF-α-stimulated NF-κB dual luciferase reporter assay in HeLa cells; type: cell-based
Description: NF-κB activity was assessed using a previously described dual plasmid reporter system. HeLa cells were transfected with NF-κB luciferase (Stratagene Products Division, Agilent Technologies, La Jolla, CA, USA) and pRLuc-N3 (PerkinElmer, Waltham, MA, USA) at an 8:1 ratio, respectively, in triplicate. […] NF-κB activity was measured 5 h later with a Dual-Glo Luciferase Assay (Promega, Madison, WI, USA) and an Omni plate reader (BMG Labtech, Cary, NC, USA). The ratio of firefly luciferase luminescence (NF-κB reporter) to Renilla luciferase luminescence (control) was normalized for the number of viable transfected cells. Data are reported as a ratio of activity of viable treated cells over the activity of cells not exposed to TNF-α or drug (fold stimulation above basal untreated levels of activity). The viability of HeLa cells with and without drug was also measured using a CellTiter-Glo luminescent viability assay (Promega). […]
NF-κB activity was assessed in HeLa cells that were transiently transfected with two reporter constructs as described in the manuscript. Agents were tested for their ability to block TNF- […]
Expression of the luciferase from the Renilla construct was used as a measure of viability, which was confirmed with a cytotoxicity assay (see later section).

[4] = test system: SW982; assay: Synovial toxicity (CellTiter-Glo), with or without TNF-α
Description: Viability was measured with the CellTiter-Glo luminescent viability assay (Promega). […] To more accurately predict the effects of the drugs on osteoarthritic synovium, cells were tested with or without TNF-α (20 ng/ml; BioSource).
In Vitro Toxicity Testing with a Synovial Cell Line
Compounds were tested for synovial toxicity using SW982 cells alone or in the presence of TNF as

[5] = test system: Normal human articular chondrocytes; assay: Cytotoxicity to chondrogenic pellets (CellTiter-Blue)
Description: Differentiated chondrogenic pellets were used both to test the ability of drugs to block MMP-13 activity and to test for drug toxicity. […] Supernatants were collected and analyzed for MMP-13 using an enzyme-linked immunosorbent assay (GE Healthcare Life Sciences, Little Chalfont, UK). Cytotoxicity to pellets was assessed using CellTiter-Blue (Promega).

[6] = test system: MMP-13; assay: MMP-13 ELISA on supernatants of TNF-α-treated chondrogenic pellets; type: cell-based, human; conditions: for Concentration inhibiting MMP-13: > = failed to inhibit up to highest concentration tested
[7] = test system: HeLa cells; assay: HeLa cell viability (CellTiter-Glo)
Description: NF-κB activity was assessed using a previously described dual plasmid reporter system. HeLa cells were transfected with NF-κB luciferase (Stratagene Products Division, Agilent Technologies, La Jolla, CA, USA) and pRLuc-N3 (PerkinElmer, Waltham, MA, USA) at an 8:1 ratio, respectively, in triplicate. […] NF-κB activity was measured 5 h later with a Dual-Glo Luciferase Assay (Promega, Madison, WI, USA) and an Omni plate reader (BMG Labtech, Cary, NC, USA). The ratio of firefly luciferase luminescence (NF-κB reporter) to Renilla luciferase luminescence (control) was normalized for the number of viable transfected cells. Data are reported as a ratio of activity of viable treated cells over the activity of cells not exposed to TNF-α or drug (fold stimulation above basal untreated levels of activity). The viability of HeLa cells with and without drug was also measured using a CellTiter-Glo luminescent viability assay (Promega).
In Vitro Hela Cell Drug Toxicity Testing
Potential drug toxicity was measured using a CTG assay and HeLa cells (Promega). Drugs not tested in
this assay were tested in either of the in vitro toxicity assays already presented (synovial or chondrocyte
Table 3- Drug toxicity measured using a CTG assay and HeLa cells.

[8] = published half-life; cited from earlier work

Row | Compound | Non-toxic & predicted range of efficacy [1] | Overlapping effective and nontoxic range [1] | Effective range against Osteoclasts [2] | Non-toxic range (Synovial) [4] [µM] | Non-toxic range (Chondrocyte) [5] | t 1/2 [8] | further results
1 | Nc1cc(-c2ccncc2)c[nH]c1=O [Amrinone] | ≥ 80 µM | 80 µM | Not effective | 1.25 to 40 | 1.25 to 80 µM |  | Effective range against NFkB [3]: None; MMP-13, effective concentration ([6]; number printed in the class column): 80
2 | CC[C@@H]1/C=C(\C)C[C@H](C)C[C@H](OC)[C@H]2O[C@@](O)(C(=O)C(=O)N3CCCC[C@H]3C(=O)O[C@H](/C(C)=C/[C@@H]3CC[C@@H](O)[C@H](OC)C3)[C@H](C)[C@@H](O)CC1=O)[C@H](C)C[C@@H]2OC [Ascomycin] | 1.25 to 40 µM | 1.25 to 40 µM |  | 625000 to 4e+07 | 0.625 to 40 µM |  | minimal effective concentration [2]: 0.01 µM; Effective range against MMP-13 [6]: Not effective; Concentration inhibiting MMP-13 [6]: > 40 µM
3 | Cc1ccc(S(=O)(=O)/C=C/C#N)cc1 [BAY-117082, BAY-11-7082] | None | 6 to 192 µM | ≥ 3 µM | 3 to 6 | 0.18 to 1.5 µM |  | Effective against NF κβ (p<0.05) [3]: 12 to 96 µM; Effective range against NFkB [3]: 12 to 96 µM; Non-toxic concentrations [7]: 6 to 96 µM; Concentration with notable toxicity [4]: 12 µM; Effective range against MMP-13 [6]: ≥ 0.75 µM
4 | CC(=O)Oc1cccc2c1C(=O)c1c(OC(C)=O)cc(C(=O)O)cc1C2=O [Diacerein] | None | Toxic to chondrocytes |  | 1.5 to 54.3 | All toxic |  | Non-toxic concentrations ([7]; (TNF), i.e. without TNF): 0 to 1.375e+07 µM; Non-toxic concentrations ([7]; +TNF): 0 to 2.275e+07 µM; Toxic concentrations (p<0.05) ([7]; with TNF): 50 to 110 M
5 | CNC(=O)[C@H](Cc1c[nH]c2ccccc12)NC(=O)[C@@H](CC(=O)NO)CC(C)C [GM6001] |  |  | Not effective | 0.33 to 25 | 0.4 to 25 µM |  | MMP-13, effective concentration [6]: 25
6 | O=C(c1ccccc1)c1ccc2n1CCC2C(=O)O (centres unmarked) [Keterolac] | ≥ 12.5 µM |  | Not effective | 0.625 to 40 | 3.17 to 200 µM |  | 
7 | CC[C@@H]1/C=C(\C)C[C@H](C)C[C@H](OC)[C@H]2O[C@@](O)(C(=O)C(=O)N3CCCC[C@H]3C(=O)O[C@H](/C(C)=C/[C@@H]3CC[C@H](Cl)[C@H](OC)C3)[C@H](C)[C@@H](O)CC1=O)[C@H](C)C[C@@H]2OC [Pimecrolimus] | 2.5 to 40 µM | 2.5 to 20 µM |  | 0.625 to 40 | 0.625 to 40 µM | Ascomycin macrolactam derivative Like tacrolimus, a calcineurin inhibitor that inhibits release of inflammatory cytokines [97] t 1/2 = 30–100 h | minimal effective concentration [2]: 0.01 µM; Effective range against MMP-13 [6]: Not effective; Concentration inhibiting MMP-13 [6]: > 40 µM
8 | Oc1ccc(/C=C/c2cc(O)cc(O)c2)cc1 [Resveratrol] |  |  |  | 3.12 to 100 | 3.12 to 200 µM | Suppresses IL-1β signaling and IL-1β-stimulated apoptosis in osteoarthritis [98] A natural inhibitor of NF-κB [99] t 1/2 = 1–3 h | Lowest inhibitory concentration, matrix resorption [2]: 6.25 µM; Effective range against NFkB [3]: Not effective
9 | O=C(O)c1cc(O)c2c(c1)C(=O)c1cccc(O)c1C2=O [Rhein] | 40 µM |  | Not effective | 625000 to 4e+07 | 0.625 to 40 µM | Anthraquinone-active metabolite of diacerein Reduces proliferation of chondrocytes and synoviocytes; inhibits NF-κB activation in vitro [101] t 1/2 = 4.3 h | Effective against NF κβ (p<0.05) [3]: Only at toxic; Non-toxic concentrations [7]: 2.5 to 20 µM
10 | O=C(O)c1cc(/N=N/c2ccc(S(=O)(=O)Nc3ccccn3)cc2)ccc1O [Sulfasalazine] | 50 to 400 µM | 150 to 1600 µM |  | 12.5 to 400 | 12.5 to 800 µM | NSAID t 1/2 = 5 – 10 h | 
11 | CC1=C(CC(=O)O)c2cc(F)ccc2/C1=C\c1ccc([S+](C)[O-])cc1 (centres unmarked) [Sulindac] | 8.8 to 280 µM | 280 µM |  | 4.4 to 280 | 4.35 to 280 µM | NSAID t 1/2 = 7.8 h | Non-toxic concentrations [7]: 8.75 to 70 µM
12 | CC1(C)O[C@@H]2C[C@H]3[C@@H]4CCC5=CC(=O)C=C[C@]5(C)[C@@]4(F)[C@@H](O)C[C@]3(C)[C@]2(C(=O)CO)O1 [Triamcinolone acetonide] | 31.25 to 500 µM | 250 to 500 µM |  | 0.7 to 250 |  | Steroid t 1/2 = 88 min | Lowest inhibitory concentration, matrix resorption [2]: 250 µM
13 | COc1ccc(CCN(C)CCCC(C#N)(c2ccc(OC)c(OC)c2)C(C)C)cc1OC (centres unmarked) [Verapamil] |  |  | Not effective |  |  |  | 
14 | Epigallocatechin-3-gallate [EGCG] | 5.5 to 44 µM | 5.5 to 44 µM | None? | 690000 to 4.4e+07 | 690000 to 4.4e+07 µM |  | Effective range against NFkB [3]: 5.5 to 88 µM; Effective range against MMP-13 [6]: ≥ 5.5 µM
